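Assay format: 96-well plates, 48-hour exposure. TGI denotes the concentration required for complete inhibition of growth.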
Experiments:
Experiment in all cases: inhibition of tumour cell growth, NCI panel, 48 h
[1] = system: OVCAR-5 ovarian
[2] = system: TK-10 renal
[3] = system: HCT-116 colon
[4] = system: NCI-H460 lung
[5] = system: MOLT-4 leukemia
[6] = system: NCI/ADR-RES ovarian
[7] = system: M14 melanoma
[8] = system: HS 578T breast
[9] = system: A549 NSCLC
[10] = system: DU-145 prostate
[11] = system: UO-31 renal
[12] = system: OVCAR-8 ovarian
[13] = system: 786-0 renal
[14] = system: NCI-H226 lung
[15] = system: SK-MEL-5 melanoma
[16] = system: LOX IMVI melanoma
[17] = system: T-47D breast
[18] = system: HOP-92 NSCLC
[19] = system: COLO 205 colon
[20] = system: HCC-2998 colon
[21] = system: SNB-75 CNS
[22] = system: MALME-3M melanoma
[23] = system: HCT-15 colon
[24] = system: SK-MEL-28 melanoma
[25] = system: SN12C renal
[26] = system: HOP-62 NSCLC
[27] = system: IGROV1 ovarian
[28] = system: MDA-N
[29] = system: U251 CNS
[30] = system: A498 renal
[31] = system: KM12 colon
[32] = system: OVCAR-4 ovarian
[33] = system: SF-268 CNS
[34] = system: UACC-62 melanoma
[35] = system: BT-549 breast
[36] = system: ACHN renal
[37] = system: EKVX NSCLC
[38] = system: SF-539 CNS
[39] = system: CAKI-1 renal
[40] = system: NCI-H522 lung
[41] = system: UACC-257 melanoma
[42] = system: HT29 colon
[43] = system: SW-620 colon
[44] = system: HL-60(TB) leukemia
[45] = system: CCRF-CEM leukemia
[46] = system: MDA-MB-231 breast
[47] = system: SNB-19 CNS
[48] = system: RXF 393 renal
[49] = system: MDA-MB-435
[50] = system: OVCAR-3 ovarian
[51] = system: K-562 leukemia
[52] = system: NCI-H23 lung
[53] = system: SF-295 CNS
[54] = system: MCF7 breast
[55] = system: SK-MEL-2 melanoma
[56] = system: SR leukemia
[57] = system: RPMI-8226 leukemia
[58] = system: SK-OV-3 ovarian

Work on Cc1nn2c(C(=O)N/N=C/c3ccccc3O)c(C)nc2s1 yielded a TGI [1] greater than 100 µM, a TGI [2] greater than 100 µM and a TGI [3] greater than 100 µM. For the same compound, the TGI [4] was greater than 100 µM, the TGI [5] was greater than 100 µM and the TGI [6] was greater than 100 µM. The TGI [7] was greater than 100 µM, the TGI [8] was greater than 100 µM and the TGI [9] was greater than 100 µM. For the same compound, the TGI [10] was greater than 100 µM, the TGI [11] was greater than 100 µM and the TGI [12] was greater than 100 µM. For the same compound, the TGI [13] was greater than 100 µM, the TGI [14] was greater than 100 µM and the TGI [15] was greater than 100 µM. For the same compound, the TGI [16] was greater than 100 µM, the TGI [17] was greater than 100 µM and the TGI [18] was greater than 100 µM. For the same compound, the TGI [19] was greater than 100 µM, the TGI [20] was greater than 100 µM and the TGI [21] was greater than 100 µM. For the same compound, the TGI [22] was greater than 100 µM, the TGI [23] was greater than 100 µM and the TGI [24] was greater than 100 µM. It also gave a TGI [25] greater than 100 µM, a TGI [26] greater than 100 µM and a TGI [27] greater than 100 µM. It also gave a TGI [28] greater than 100 µM, a TGI [29] greater than 100 µM and a TGI [30] greater than 100 µM. For the same compound, the TGI [31] was greater than 100 µM, the TGI [32] was greater than 100 µM and the TGI [33] was greater than 100 µM. It also gave a TGI [34] greater than 100 µM, a TGI [35] greater than 100 µM and a TGI [36] greater than 100 µM. It also gave a TGI [37] greater than 100 µM, a TGI [38] greater than 100 µM and a TGI [39] greater than 100 µM. For the same compound, the TGI [40] was greater than 100 µM, the TGI [41] was greater than 100 µM and the TGI [42] was greater than 100 µM. The TGI [43] was greater than 100 µM, the TGI [44] was greater than 100 µM and the TGI [45] was greater than 100 µM. For the same compound, the TGI [46] was greater than 100 µM, the TGI [47] was greater than 100 µM and the TGI [48] was greater than 100 µM. For the same compound, the TGI [49] was greater than 100 µM, the TGI [50] was 90.6 µM and the TGI [51] was greater than 100 µM. It also gave a TGI [52] greater than 100 µM, a TGI [53] greater than 100 µM and a TGI [54] greater than 100 µM.

In the case of COc1cc(-c2cc(=O)c3c(OC)c(OC)c(OC)c(OC)c3o2)cc(OC)c1OC, the TGI [1] is reported as greater than 100 µM, the TGI [2] is reported as greater than 100 µM and the TGI [3] is reported as greater than 100 µM. It also gave a TGI [4] greater than 100 µM, a TGI [55] greater than 100 µM and a TGI [5] greater than 100 µM. It also gave a TGI [6] of 84 µM, a TGI [7] greater than 100 µM and a TGI [8] greater than 100 µM. It also gave a TGI [9] greater than 100 µM, a TGI [10] greater than 100 µM and a TGI [11] greater than 100 µM. The TGI [12] was greater than 100 µM, the TGI [13] was greater than 100 µM and the TGI [56] was greater than 100 µM. For the same compound, the TGI [14] was greater than 100 µM, the TGI [15] was 39.5 µM and the TGI [16] was 83.1 µM. The TGI [17] was 70.5 µM, the TGI [18] was 86.6 µM and the TGI [19] was 40 µM. The TGI [20] was greater than 100 µM, the TGI [21] was greater than 100 µM and the TGI [22] was greater than 100 µM. It also gave a TGI [23] greater than 100 µM, a TGI [24] greater than 100 µM and a TGI [25] greater than 100 µM. For the same compound, the TGI [26] was greater than 100 µM, the TGI [27] was greater than 100 µM and the TGI [28] was greater than 100 µM. The TGI [29] was greater than 100 µM, the TGI [30] was 85.2 µM and the TGI [32] was greater than 100 µM. For the same compound, the TGI [33] was greater than 100 µM, the TGI [34] was 89.5 µM and the TGI [35] was greater than 100 µM. It also gave a TGI [36] greater than 100 µM, a TGI [37] greater than 100 µM and a TGI [38] greater than 100 µM. The TGI [39] was greater than 100 µM, the TGI [40] was 51.1 µM and the TGI [41] was greater than 100 µM. It also gave a TGI [42] greater than 100 µM, a TGI [43] greater than 100 µM and a TGI [44] of 67.5 µM. The TGI [45] was greater than 100 µM, the TGI [57] was greater than 100 µM and the TGI [46] was greater than 100 µM. For the same compound, the TGI [47] was greater than 100 µM, the TGI [48] was greater than 100 µM and the TGI [58] was greater than 100 µM. The TGI [49] was greater than 100 µM, the TGI [50] was greater than 100 µM and the TGI [51] was greater than 100 µM. The TGI [52] was greater than 100 µM, the TGI [53] was greater than 100 µM and the TGI [54] was greater than 100 µM.

With CC(C)(C)OC(=O)Nc1nnc(S(N)(=O)=O)s1 the TGI [1] was greater than 100 µM, the TGI [2] was greater than 100 µM and the TGI [3] was greater than 100 µM. The TGI [4] was greater than 100 µM, the TGI [55] was greater than 100 µM and the TGI [5] was greater than 100 µM. For the same compound, the TGI [6] was greater than 100 µM, the TGI [7] was greater than 100 µM and the TGI [8] was greater than 100 µM. The TGI [9] was greater than 100 µM, the TGI [10] was greater than 100 µM and the TGI [11] was greater than 100 µM. It also gave a TGI [12] greater than 100 µM, a TGI [13] greater than 100 µM and a TGI [56] greater than 100 µM. For the same compound, the TGI [14] was greater than 100 µM, the TGI [15] was greater than 100 µM and the TGI [16] was greater than 100 µM. For the same compound, the TGI [17] was greater than 100 µM, the TGI [18] was greater than 100 µM and the TGI [19] was greater than 100 µM. It also gave a TGI [20] greater than 100 µM, a TGI [22] greater than 100 µM and a TGI [23] greater than 100 µM. It also gave a TGI [24] greater than 100 µM, a TGI [25] greater than 100 µM and a TGI [26] greater than 100 µM. For the same compound, the TGI [28] was greater than 100 µM, the TGI [29] was greater than 100 µM and the TGI [30] was greater than 100 µM. For the same compound, the TGI [31] was greater than 100 µM, the TGI [32] was greater than 100 µM and the TGI [33] was greater than 100 µM. It also gave a TGI [34] greater than 100 µM, a TGI [35] greater than 100 µM and a TGI [36] greater than 100 µM. For the same compound, the TGI [37] was greater than 100 µM, the TGI [38] was greater than 100 µM and the TGI [39] was greater than 100 µM. For the same compound, the TGI [40] was greater than 100 µM, the TGI [41] was greater than 100 µM and the TGI [42] was greater than 100 µM. For the same compound, the TGI [43] was greater than 100 µM, the TGI [44] was greater than 100 µM and the TGI [45] was greater than 100 µM. For the same compound, the TGI [57] was greater than 100 µM, the TGI [46] was greater than 100 µM and the TGI [47] was greater than 100 µM. It also gave a TGI [48] greater than 100 µM, a TGI [58] greater than 100 µM and a TGI [49] greater than 100 µM. The TGI [50] was greater than 100 µM, the TGI [51] was greater than 100 µM and the TGI [52] was greater than 100 µM. For the same compound, the TGI [53] was greater than 100 µM and the TGI [54] was greater than 100 µM.

Reference: PubChem BioAssay (NCI)
